Values quoted from earlier work, collected in patent US9102664B2, “Process for the preparation of triazole antifungal drug, its intermediates and polymorphs thereof” (MSN Laboratories Limited, priority 2011, dated 2015).

How the values were obtained:
[1] = under the conditions investigated in WO 99/18097
[2] = produced per U.S. Pat. No. 5,661,151 using 6N HCl in methanol

Row | Structure (SMILES) | stability of crystalline form [1] | stability of amorphous form [2]
1 | CC[C@@H]([C@H](C)O)n1ncn(-c2ccc(N3CCN(c4ccc(OC[C@@H]5CO[C@@](Cn6cncn6)(c6ccc(F)cc6F)C5)cc4)CC3)cc2)c1=O [form II, posaconazole] | unstable | 
2 | CC[C@@H]([C@H](C)O)n1ncn(-c2ccc(N3CCN(c4ccc(OC[C@@H]5CO[C@@](Cn6cncn6)(c6ccc(F)cc6F)C5)cc4)CC3)cc2)c1=O [Amorphous form of posaconazole, posaconazole] |  | not stable
